Test results as given in patent US20250213614A1, “Modified RELA Protein for Inducing Interferon Expression and Engineered Immune Cells with Improved Interferon Expression” (Institut Curie, priority 2022, published 2025).

Legend:
Format in all cases: cell-based, human
CD4+ T cells = experiment: IFN-I/III quantification (LEGENDplex) in CD4+ T cells, baseline or after STING stimulation; conditions: for IFNλ1 response to cGAMP under epigenetic inhibitor: CD4+ T cells, TSA 100 nM or 5AZA 2 μM, FIG. 3D; for IFN-I/III: over-expression of cGAS or NLS-cGAS in CD4+ T cells, data not shown
Method: (§1) Plasmapheresis blood pockets were obtained from healthy adult volunteers after informed consent from the EFS (Establishment of French blood collection). Peripheral blood mononuclear cells (PBMCs) were isolated using Ficoll-Paque Plus (GE-17144003) and left overnight at 4° C. in RPMI (Thermo fischer #61870-010) with 10% heat-decomplemented fetal bovine serum (FBS, Eurobio #CVFSVFO0-01). CD14+ cells were enriched by positive selection (Miltenyi #130-050-201), the CD14 negative fraction was subsequently used to isolate total CD4+ T cells by negative selection (Stem Cell #17952). CD14+ cells were cultured in RPMI containing 10% FBS, 5% Penicillin-Streptomycin (PS, Thermo Fisher #10378-016), 50 μg/ml Gentamicin (Thermo Fisher #15750-045) and 10 mM HEPES (Thermo Fisher #15630-056). CD14+ cells were differentiated ex vivo into MDDC by supplementing the culture media with 50 ng/ml IL-4 (Miltenyi #130-093-922) and 10 ng/ml GM-CSF (Miltenyi #130-093-867). MDDC were used for experiments 3 or 4 days following the start of the culture. CD14+ cells were differentiated ex vivo into macrophages by adding 50 ng/ml MCSF (Miltenyi #130-096-492) to the culture media containing RPMI with 1% PS, 5% FBS and 5% human serum (Sigma #H4522). MDM were used 7 days following culture. Freshly isolated CD4+ T cells were cultured in X-VIVO 15 (Lonza #BE02-060F) and activated using anti-CD3 and anti-CD28 Dynabeads (fisher scientific #10548353) at the ratio of 1:5 (bead:cell). 100 U/ml human IL-2 (Immunotools #11340027) was added to cultures 2 days following TCR stimulation and media with IL-2 was replenished every 48 hours. To assess proliferation, freshly isolated CD4+ T cells were stained with cell proliferation dye (thermo fischer #65-0840-85) prior to TCR stimulation.
(§2) CD14+ cells were plated at 1 million cells/ml and transduced with equal volumes of freshly harvested SIV-VLPs and pTRIP-SFFV vectors in the presence of 8 μg/ml protamine (Sigma #P4020). CD4+ T cells were transduced with lentivectors 24 hours post-TCR stimulation in 100 μl of cells (0.2 million cells) and 100 μl of freshly harvested lentivirus in the presence of 8 μg/ml protamine. T cells were spinoculated at 1200 g for 2 hours at 25° C. 0.5 million THP-1 cells in 500 μl media (RPMI 10% FBS 1% PS) were transduced with 500 μl freshly harvested lentivirus in the presence of 8 μg/ml protamine. 1 μg/ml Puromycin (Invivogen #ant-pr-1) was added 2 days post-transduction when cells were transduced with pLKO.1-puro plasmid.
For stimulation of STING by extracellular ligands, 2.5 μg of ADUS100 (invivogen #tlrl-nacda2r-01) or 2′3′-cGAMP (cGAMP, invivogen #tlrl-nacga23-02) was added to 100,000 cells in 100 μl media either on freshly isolated primary cells or 3-4 days post differentiation for MDDC and 3 days post-TCR stimulation for CD4+ T cells. Cells and supernatant were harvested 18-24 hours post stimulation. For delivery of STING ligands after permeabilization, T cells were used 3 or 4 days post TCR stimulation and MDDC were used 3-4 days following differentiation. 150,000 cells were plated in round bottom 96-well plate. Media was removed by centrifugation and 20 μl 2× permeabilization buffer (100 mM HEPES, 200 mM KCl, 6 mM MgCl2, 0.2 mM DTT, 170 mM Sucrose, 2 mM ATP, 2 mM GTP, 0.4% bovine serum albumin (BSA), 20 μg/ml digitonin) and 20 μl cGAMP (12 μg/ml) was added to cells. 18 to 20 hours following stimulation supernatants and cells were harvested. Cells were stained with a fixable viability dye (Invitrogen #65-0865-14) and acquired on a FACSVerse (BD). […]
Where indicated, cells were treated with 5-Azacytidine (5AZA, Sigma #A2385) 48 hours prior to cGAMP stimulation. Fresh 5AZA was added daily to cells, and media was replenished with 5AZA following cGAMP stimulation. 100 nM Trichostatin A (TSA) (sigma #T1952) was added to cells following cGAMP stimulation and left overnight. […]

[1] = test system: STING, TBK1, IRF3, RELA, IRF7; experiment: Western blot of key signaling proteins involved in STING signaling; conditions: for cGAMP-mediated STING signaling: CD4+ T cells treated with TSA or 5AZA, FIG. 3E
Method: 0.5 million cells were lysed for 30 minutes on ice in 50 μl RIPA buffer (50 mM Tris HCl, 150 mM NaCl, 0.1% SDS, 0.5% DOC, 1% NP-40) with Protease inhibitor (Roche #1187358001). To evaluate, phospho-proteins 50 mM NaF and 1 mM sodium orthovanadate were added to the lysis buffer. Protein lysates were cleared by centrifugation at 12,000 g for 10 to 12 minutes at 4° C. 10 μl of 6× Laemmli buffer (fisher scientific #J61337) was added to 50 μl protein lysates and samples were boiled at 95° C. for 15 minutes. Protein samples were resolved on 4%-20% Biorad precast SDS-PAGE gels (#5671125) and transferred onto PVDF membranes (BioRad #1704157). Membranes were blocked in 5% non-fat dry milk in PBS 0.1% tween or in TBS 5% BSA 0.1% Tween to detect phosphorylated proteins. Primary antibodies were used at 1:1000:phospho-STING (clone-D7C3S), STING (clone-D2P2F), serine 172 phospho-TBK1 (clone-D52C2), TBK1 (clone-D11B4), serine 396 phospho IRF3 (clone-D6O1M), IRF3 (clone-D83B9), RELA (clone-C22B4), IRF7 (clone-12G9A36), cGAS (clone-D1 D3G), Actin (clone-C4), Sendai viral proteins (Biozol #MBL-PD029). Secondary anti-rabbit or anti-mouse antibody were used at 1:10,000 (santa cruz #sc-2357, #sc-516102). ECL signal (Biorad #1705061 and #1705062) was recorded on a ChemiDoc Touch Biorad Imager. Data was analyzed and quantified with Image Lab software (Biorad). In figures, dotted lines indicate reordering of lanes from a single original membrane for visualization purpose.

MDDC = experiment: IFN-I/III quantification (LEGENDplex) in MDDC after STING stimulation
Method: as §1, §2
For stimulation of STING by extracellular ligands, 2.5 μg of ADUS100 (invivogen #tlrl-nacda2r-01) or 2′3′-cGAMP (cGAMP, invivogen #tlrl-nacga23-02) was added to 100,000 cells in 100 μl media either on freshly isolated primary cells or 3-4 days post differentiation for MDDC and 3 days post-TCR stimulation for CD4+ T cells. Cells and supernatant were harvested 18-24 hours post stimulation. For delivery of STING ligands after permeabilization, T cells were used 3 or 4 days post TCR stimulation and MDDC were used 3-4 days following differentiation. 150,000 cells were plated in round bottom 96-well plate. Media was removed by centrifugation and 20 μl 2× permeabilization buffer (100 mM HEPES, 200 mM KCl, 6 mM MgCl2, 0.2 mM DTT, 170 mM Sucrose, 2 mM ATP, 2 mM GTP, 0.4% bovine serum albumin (BSA), 20 μg/ml digitonin) and 20 μl cGAMP (12 μg/ml) was added to cells. 18 to 20 hours following stimulation supernatants and cells were harvested. Cells were stained with a fixable viability dye (Invitrogen #65-0865-14) and acquired on a FACSVerse (BD).
For experiments with conditioned media, CD4+ T cell- and MDDC-conditioned media refer to […] filtered conditioned media from cultures of activated CD4+ T cell and MDDC, respectively. CD4+ T cells were pretreated with 100 μl of MDDC-conditioned media or of fresh MDDC culture media, 24 hours prior to cGAMP stimulation. […]

[2] = TCR-activated CD4+ T cells, ADU-S100 2.5 μg, FIG. 1D

Molecule: Nc1ncn([C@@H]2O[C@H](CO)[C@@H](O)[C@H]2O)c(=O)n1 [5AZA, 5-Azacytidine, reference compound]
- IFNλ1 response to cGAMP under epigenetic inhibitor (CD4+ T cells): enhanced the IFNλ1 response to cGAMP
- cGAMP-mediated STING signaling [1]: did not occur through detectable increase

Molecule: Nc1ncnc2c1ncn2[C@@H]1O[C@@H]2COP(=O)([S-])O[C@@H]3[C@H](O)[C@@H](COP([O-])(=S)O[C@H]2[C@H]1O)O[C@H]3n1cnc2c(N)ncnc21.[Na+].[Na+] (stereo partly drawn) [ADU-S100, reference compound]
- IFN-I induction (CD4+ T cells; [2]): no detectable IFN-I
- IFN-III induction (CD4+ T cells; [2]): induced IFN-III
- IFN response to STING ligands (CD4+ T cells; resting blood CD4+ T cells, soluble ligand 1 μg or 2.5 μg, FIG. 1B): undetectable
- IFNλ1 produced by donor-matched MDDC, more than TCR-activated CD4+ T cells (MDDC; ADU-S100 2.5 μg, FIG. 1D): 10 fold
- IFNβ production (MDDC; donor-matched MDDC, ADU-S100 2.5 μg, FIG. 1D): high levels

Molecule: CC(/C=C/C(=O)NO)=C\[C@@H](C)C(=O)c1ccc(N(C)C)cc1 [TSA, Trichostatin A, reference compound]
- IFN expression at baseline with RELA K5R and after cGAMP stimulation (CD4+ T cells; CD4+ T cells treated with TSA): inhibits IFN expression
- IFNλ1 response to cGAMP under epigenetic inhibitor (CD4+ T cells): reduced the already low IFNλ1 production
- cGAMP-mediated STING signaling [1]: intact

Molecule: IFNγ: recombinant type II interferon, 10 ng/ml
- IFN-I/III response to cGAMP (MDDC; MDDC treated with recombinant IFNγ 10 ng/ml 24 hours before cGAMP, FIG. 1H): sufficient to enhance

Molecule: shRNA 1: pLKO.1-puro-IRF7sh1, shRNA against IRF7, CCCGAGCTGCACGTTCCTATA [reference compound]
- induction of IFNα2 by cGAMP stimulation (CD4+ T cells; CD4+ T cells expressing only RELA K5R, IRF7 knock-down, FIG. 4C): abolished
- IRF7 expression (knock-down) ([1]; CD4+ T cells treated with IFNα2a 1000 U/ml, FIG. 4B): more potent

B1: cGAS: pTRIP-SFFV-EGFP-FLAG-cGAS over-expression (protein, UniProt Q8N884 1-522, looked up)
Cyclic GMP-AMP synthase: MQPWHGKAMQRASEAGATAPKASARNARGAPMDPTESPAAPEAALPKAGKFGPARKSGSRQKKSAPDTQERPPVRATGARAKKAPQRAQDTQPSDATSAPGAEGLEPPAAREPALSRAGSCRQRGARCSTKPRPPPGPWDVPSPGLPVSAPILVRRDAAPGASKLRAVLEKLKLSRDDISTAAGMVKGVVDHLLLRLKCDSAFRGVGLLNTGSYYEHVKISAPNEFDVMFKLEVPRIQLEEYSNTRAYYFVKFKRNPKENPLSQFLEGEILSASKMLSKFRKIIKEEINDIKDTDVIMKRKRGGSPAVTLLISEKISVDITLALESKSSWPASTQEGLRIQNWLSAKVRKQLRLKPFYLVPKHAKEGNGFQEETWRLSFSHIEKEILNNHGKSKTCCENKEEKCCRKDCLKLMKYLLEQLKERFKDKKHLDKFSSYHVKTAFFHVCTQNPQDSQWDRKDLGLCFDNCVTYFLQCLRTEKLENYFIPEFNLFSSNLIDKRSKEFLTKQIEYERNNEFPVFDEF
modifications: EGFP, FLAG tag
notes: pTRIP-SFFV-EGFP-FLAG-cGAS over-expression
- IFN-I/III (CD4+ T cells): remained undetectable

B2: NLS-cGAS: pTRIP-SFFV-EGFP-NLS-FLAG-cGAS, nuclear localization signal cGAS over-expression (protein, UniProt Q8N884 1-522, looked up)
Cyclic GMP-AMP synthase: B1 Cyclic GMP-AMP synthase
modifications: EGFP, NLS, FLAG tag
notes: pTRIP-SFFV-EGFP-NLS-FLAG-cGAS, nuclear localization signal cGAS over-expression
- IFN-I/III (CD4+ T cells): remained undetectable

B3: RELA K310R: RELA with lysine 310 substituted for arginine, expressed from lentivector (protein)
chain: MDELFPLIFPAEPAQASGPYVEIIEQPKQRGMRFRYKCEGRSAGSIPGERSTDTTKTHPTIKINGYTGPGTVRISLVTKDPPHRPHPHELVGKDCRDGFYEAELCPDRCIHSFQNLGIQCVRRRDLEQAISQRIQTNNNPFQVPIEEQRGDYDLNAVRLCFQVTVRDPSGRPLRLPPVLSHPIFDNRAPNTAELKICRVNRNSGSCLGGDEIFLLCDKVQKEDIEVYFTGPGWEARGSFSQADVHRQVAIVFRTPPYADPSLQAPVRVSMQLRRPSDRELSEPMEFQYLPDTDDRHRIEEKRKRTYETFRSIMRRSPFSGPTDPRPPPRRIAVPSRSSASVPKPAPQPYPFTSSLSTINYDEFPTMVFPSGQISQASALAPAPPQVLPQAPAPAPAPAMVSALAQAPAPVPVLAPGPPQAVAPPAPKPTQAGEGTLSEALLQLQFDDEDLGALLGNSTDPAVFTDLASVDNSEFQQLLNQGIPVAPHTTEPMLMEYPEAITRLVTGAQRPPDPAPAPLGAPGLPNGLLSGDEDFSSIADMDFSALLSQISS
- IFNλ1 after cGAMP stimulation (CD4+ T cells; lentivector overexpression in CD4+ T cells, FIG. 2B, 2D, 2F): augmented in the presence of cGAMP
- IFNα2 in response to cGAMP (CD4+ T cells; lentivector overexpression in CD4+ T cells, FIG. 2D, 2F): detected
- baseline IFNλ1 expression (CD4+ T cells; lentivector overexpression in CD4+ T cells, no cGAMP, FIG. 2D, 2F): increased baseline IFNλ1 similar to RELA K5R
